From patent US20130183719A1, “METHOD FOR PRODUCING VIRUS VECTOR” (priority 2010, published 2013)

Legend:
[1] = test system: retrovirus vector; experiment: RNA copy number in retrovirus supernatant (Retrovirus Titer Set, real time PCR); conditions: Example 9; FIG. 9
Method: (§1) A working cell bank (WCB) prepared from the cloned cell obtained in Example 7-1 was thawed in a water bath at 37° C. The cell solution thus thawed was put into a 15 mL centrifuging tube. After addition of a complete medium [a DMEM medium (manufactured by Gibco) containing 10% fetal bovine serum (10% FBS, manufactured by SAFC Biosciences)], the tube was subjected to centrifugation (500×g, 5 minutes, 20° C.). After the centrifugation, a supernatant was removed, and the cells were suspended in 10 mL of the complete medium and then counted. After cell counting, the cell suspension was adjusted with the complete medium to 78.5×10^4 cells/mL. To a 100 mm dish for cell culture (manufactured by IWAKI) were added 1 mL of the cell suspension and 14.7 mL of the complete medium. The cell culture was carried out in a CO2 incubator (37° C., 95% of humidity, 5% CO2). The cell was subcultured at intervals of 3 days. […]
The RNA copy number was determined using Retrovirus Titer Set (for Real Time PCR) (manufactured by TAKARA BIO INC.) according to a standard method described in the directions for use attached to the product.
The retrovirus producer cell as described in Example 7-1 was used to prepare virus supernatants. […] However, virus supernatants collected over 3 days were mixed and evaluated in this Example, whereas virus supernatants were collected over 4 days in Example 2-1.

[2] = test system: PBMC; experiment: Gene transduction of PBMC with MS-MA24-siTCR retrovirus supernatants from producer cells cultured in the test media (CD8/MAGE-A4 tetramer flow cytometry); assay type: cell-based, human; conditions: Example 9; FIG. 8
Description: A HEK 293 T cell (ATCC CRL-11268) was transfected with the codon modified TCR and siRNA-coexpression retroviral vector (MS-MA24-siTCR) described in WO 2008/153029 using Retrovirus Packaging Kit Eco (manufactured by TAKARA BIO INC.) according to the manufacturer's protocol to obtain an ecotropic retrovirus supernatant. The virus supernatant was filtered with a 0.45 μm filter (Milex HV, manufactured by Millipore). A PG13 cell was infected with the filtrate by a method using polybrene, and then cloned by a limiting dilution method.
as §1, with “CO2).” for “CO2). The cell was subcultured at intervals of 3 days.”

`CC(/C=C/C(=O)NO)=C\[C@@H](C)C(=O)c1ccc(N(C)C)cc1` [TSA, trichostatin A] was tested, and the “RNA copy number, TSA 500 nM compared with 50 nM” value [1] was “more effective” and the “gene transduction efficiency, TSA 500 nM compared with 50 nM” value [2] was “more effective”.
